Measurements as given in patent US7674471B2, “Topical composition, topical composition precursor, and methods for manufacturing and using” (Skinvisible Pharmaceuticals, Inc., priority 2001, dated 2010).

Assay: solubility in water or solvents
Text: In addition, β-cyclodextrin is a relatively small molecule with all of its —OH groups lying on the outside of the molecule. If all of the —OH groups formed complexes with pyrrolidone groups, none would be available to promote water solubility.

| Substance | solubility in water |
| --- | --- |
| Dextran-70 | extremely soluble in water |
| Polyvinylpyrrolidone [PVP] | quite water soluble |
